Results: patent publication US6479050B1, “Trace element-rich additive, method for preparing same, preparation in which the additive is included and use thereof” (Innovi N.V., priority 1991, dated 2002)
Values joined by “and” are separate entries in the source; they are usually repeats but may differ in a detail not shown here. Equal entries are not always repeated.

Legend:
[1] = Se content in plasma during supplementation; conditions: child with Protein Lysine Intolerance, additive 3 microgrammes Se daily for three weeks, selenite as second supplementation after 13 months, successive samples
Procedure: (§1) For three weeks a quantity of 3 microgrammes of Se in the form of the additive according to the invention was administered daily to a child suffering from Protein Lysine Intolerance (PLI).

[2] = test system: glutathione-peroxidase; assay: In vivo effect of the additive on glutathione-peroxidase activity in plasma; set-up: species or system human
Procedure: In vivo effect to the additive according to the invention on the glutathione-peroxidase activity in plasma.
as §1

O=[Se](O)O [selenite]
Se-content [1]: 20 ng/mL and 22 ng/mL and 24 ng/mL and 23 ng/mL | glutathione peroxidase activity in the plasma (change during supplementation, in words) ([2]; child with PLI, during supplementation): no increase | glutathione-peroxidase activity ([2]; plasma, child with Protein Lysine Intolerance, additive 3 microgrammes Se daily for three weeks, selenite as second supplementation after 13 months, successive samples): 0.13 U/ml and 0.12 U/ml
